From paper PMC3116320 (Indian Journal of Pharmaceutical Sciences, 2010)

Experiments:
Experiment in all cases: Sulforhodamine-B
Format in all cases: cell-based
[1] = tested on: MCF7 breast cancer cell line; settings: Homo sapiens, MCF7, read-out: IC50 anticancer evaluation MCF
[2] = tested on: HOP62 lung cancer cell line; settings: Homo sapiens, HOP-62, read-out: IC50 anticancer evaluation Hop62
[3] = tested on: Colo205 colon cancer cell line; settings: Homo sapiens, COLO 205, read-out: IC50 anticancer evaluation Colo205
[4] = tested on: HT29 colon cancer cell line; settings: Homo sapiens, HT-29, read-out: IC50 anticancer evaluation HT29
[5] = tested on: MIA-PA-CA-2 pancreatic cancer cell line; settings: Homo sapiens, MIA PaCa-2, read-out: IC50 anticancer evaluation Miapaca-2

Measured: IC50

COc1cccc2c1C(=O)c1c(O)c3c(c(O)c1C2=O)C[C@@](O)(C(=O)CO)C[C@@H]3O[C@H]1C[C@H](N)[C@H](O)[C@H](C)O1 [Adriamycin]
< 15 µM: all assays above
